Results published in US20260200890A1, “ADAR1 INHIBITORS AND METHODS OF USING THE SAME” (AVAMMUNE THERAPEUTICS INC., priority 2022, published 2026).

Columns and labels:
ADAR1 = molecular target: T1, ADAR1 (Homo sapiens, UniProt P55265); assay: ADAR1 Inhibition Assay (IFN fold-induction, Quanti-Luc luminescence, p110 KO A549 dual cells); type: cell-based; conditions: IFN fold-induction vs DMSO, 24 and 48 h
T1 construct: endogenous in cells; host or cells: p110 KO A549 dual cells
T1 sequence (P55265 1-1226): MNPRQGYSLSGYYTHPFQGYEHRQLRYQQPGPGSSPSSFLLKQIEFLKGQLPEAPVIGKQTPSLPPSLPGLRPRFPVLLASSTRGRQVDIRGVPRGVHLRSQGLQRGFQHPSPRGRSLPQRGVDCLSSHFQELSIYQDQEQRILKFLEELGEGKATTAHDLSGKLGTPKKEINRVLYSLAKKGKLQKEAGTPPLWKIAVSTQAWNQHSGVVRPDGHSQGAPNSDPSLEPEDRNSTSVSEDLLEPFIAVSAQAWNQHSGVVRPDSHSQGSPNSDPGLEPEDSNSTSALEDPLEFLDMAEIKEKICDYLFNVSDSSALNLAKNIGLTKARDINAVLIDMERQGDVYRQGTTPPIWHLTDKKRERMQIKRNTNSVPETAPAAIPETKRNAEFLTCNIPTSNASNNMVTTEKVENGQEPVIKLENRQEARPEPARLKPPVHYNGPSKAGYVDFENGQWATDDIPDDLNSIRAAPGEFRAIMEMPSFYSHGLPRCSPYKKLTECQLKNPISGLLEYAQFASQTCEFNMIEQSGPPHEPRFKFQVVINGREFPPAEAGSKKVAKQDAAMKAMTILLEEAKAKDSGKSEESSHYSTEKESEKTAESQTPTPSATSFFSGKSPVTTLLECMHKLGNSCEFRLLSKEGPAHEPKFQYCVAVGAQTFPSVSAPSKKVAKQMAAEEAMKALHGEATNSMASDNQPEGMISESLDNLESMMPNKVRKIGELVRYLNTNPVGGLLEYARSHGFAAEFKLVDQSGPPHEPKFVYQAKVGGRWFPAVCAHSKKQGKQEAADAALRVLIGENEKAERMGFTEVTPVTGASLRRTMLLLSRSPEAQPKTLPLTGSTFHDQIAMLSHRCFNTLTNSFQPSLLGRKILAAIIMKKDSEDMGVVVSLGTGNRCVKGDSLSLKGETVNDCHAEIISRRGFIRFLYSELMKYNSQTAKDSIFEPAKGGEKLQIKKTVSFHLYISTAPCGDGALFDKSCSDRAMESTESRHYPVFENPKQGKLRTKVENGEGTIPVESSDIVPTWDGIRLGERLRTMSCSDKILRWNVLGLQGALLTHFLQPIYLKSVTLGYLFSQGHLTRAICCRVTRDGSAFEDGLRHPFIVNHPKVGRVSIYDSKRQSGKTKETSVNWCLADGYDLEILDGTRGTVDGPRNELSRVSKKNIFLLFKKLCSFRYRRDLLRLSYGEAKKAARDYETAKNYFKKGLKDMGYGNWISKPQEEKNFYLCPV
In short: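 EC50 derived from IFN fold-induction, calculated as sample RLU over average DMSO RLU. Luminescence measured by Quanti-Luc on samples taken after 24 and 48 h of compound exposure (1% DMSO final, 37 °C, 5% CO2). Cells were p110 KO A549 dual, seeded at 20,000 per well in supplemented DMEM.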

Zα domain of ADAR1 p150 = molecular target: T2, Zα domain of ADAR1 p150 (Homo sapiens, UniProt P55265); assay: SPR binding assay; conditions: 6× his tag Zα domain immobilized on CM5 chip, analyte 0-25 μM
T2 construct: 10 μg/ml of Zα domain of ADAR1 was immobilized on CM5 chip using anti-HIS antibody; made in house
T2 sequence (P55265 133-199 limits assumed): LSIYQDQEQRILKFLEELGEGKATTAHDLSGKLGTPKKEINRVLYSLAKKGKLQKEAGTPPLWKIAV
Protocol: 6× his tag Za domain of ADAR1 p150 was purified using bacterial purification system. Protein was isolated from supernatant of cell lysate using Ni-NTA resin. For binding assay using SPR, 10 μg/ml of Zα domain of ADAR1 was immobilized on CM5 chip using anti-HIS antibody. Binding was quantified using the following condition below: • Analyte: 25, 12.5, 6.25, 3.125, 1.56, 0.78, 0 μM • Contact time—60 seconds, • Dissociation time—320 seconds • Flow rate—30 μL/minute Running buffer-PBSP+5% DMSO • After curve fitting, Kd values for synthesized compounds was quantified using the instrument software.

Row | Compound | EC50 (ADAR1) [µM] | Kd (Zα domain of ADAR1 p150) [µM]
1 | CCOC(=O)c1cc(-c2ccccc2)sc1C(=O)CNC(=O)c1cccc(NS(C)(=O)=O)c1 [Compound 292] | > 100 | ≤ 1
2 | CCOC(=O)c1cc(-c2ccccc2)sc1-c1cccc(NC(=O)c2cccc(NS(C)(=O)=O)c2)c1 [Compound 293] | > 100 | > 25
3 | CCOC(=O)c1cc(-c2ccccc2)sc1C1=CCN(C(=O)c2cccc(NS(C)(=O)=O)c2)CC1 [Compound 294] | > 100 | ≤ 1
4 | CCOC(=O)c1cc(-c2ccccc2)sc1NC(=O)CCS(=O)(=O)c1cccc(NS(C)(=O)=O)c1 [Compound 321] | > 100 | ≤ 1
5 | CCOC(=O)c1cc(-c2ccccc2)sc1NC(=O)COC(=O)c1cccc(P(=O)(O)O)c1 [Compound 325] | > 100 | ≤ 1
6 | CCOC(=O)c1cc(-c2ccccc2)sc1NC(=O)CNC(=O)Cc1cccc(C(F)(F)F)c1 [Compound 326] | > 100 | ≤ 1
7 | CCOC(=O)c1cc(-c2ccccc2)sc1NC(=O)CNC(=O)Cc1ccc(S(C)(=O)=O)cc1 [Compound 327] | > 100 | ≤ 1
8 | CCOC(=O)c1cc(-c2ccccc2)sc1NC(=O)CNC(=O)Cc1cccc(OC(F)(F)F)c1 [Compound 328] | > 100 | ≤ 1
9 | CCOC(=O)c1cc(-c2ccccc2)sc1-c1coc(CNc2cccc(NS(C)(=O)=O)c2)c1 [Compound 329] | > 100 | 1 to 10
10 | CCOC(=O)c1cc(-c2ccccc2)sc1NC(=O)CNC(=O)Cc1cccc(Br)c1 [Compound 330] | > 100 | ≤ 1
11 | CCOC(=O)c1cc(-c2ccccc2)sc1NC(=O)COC(=O)c1cccc(P(=O)(OCC)OCC)c1 [Compound 343] | > 100 | ≤ 1
12 | CCOC(=O)c1cc(-c2ccccc2)sc1NC(=O)CNC(=O)c1cccc(P(=O)(OCC)OCC)c1 [Compound 344] | > 100 | > 25
13 | CCOC(=O)c1cc(N)nn1C(=O)COC(=O)c1cccc(NS(C)(=O)=O)c1 [Compound 346] | > 100 | ≤ 1
14 | CCOC(=O)c1cc(-c2ccccc2)[nH]c1NC(=O)COC(=O)c1cccc(P(=O)(OCC)OCC)c1 [Compound 349] | > 100 | > 25
15 | CCOC(=O)c1cc(-c2ccccc2)sc1NC(=O)CNC(=O)Cc1cccc(P(=O)(O)O)c1 [Compound 350] | > 100 | ≤ 1
16 | CCOC(=O)c1cc(-c2ccccc2)sc1NC(=O)CNC(=O)Cc1cccc(OS(N)(=O)=O)c1 [Compound 351] | > 100 | ≤ 1
17 | CCOC(=O)c1cc(-c2ccccc2)[nH]c1NC(=O)COC(=O)c1cccc(P(=O)(O)O)c1 [Compound 355] | > 100 | ≤ 1
18 | CCOC(=O)c1sc(NC(=O)COC(=O)c2cccc(P(=O)(OCC)OCC)c2)nc1-c1ccccc1 [Compound 356] | > 100 | > 25
19 | CCOC(=O)c1cc(-c2ccccc2)sc1NC(=O)CNC(=O)c1cccc(Br)c1 [Compound 358] | > 100 | ≤ 1
20 | CCOC(=O)c1cc(-c2ccccc2)sc1NC(=O)COC(=O)c1cccc(C(=O)OC)c1 [Compound 359] | > 100 | ≤ 1
21 | CCOC(=O)c1cc(-c2ccccc2)sc1NC(=O)C1CCN(C(=O)c2cccc(P(=O)(OCC)OCC)c2)C1 (stereo not drawn) [Compound 361] | 50 to 100 | > 25
22 | CCOC(=O)c1cc(-c2ccccc2)sc1NC(=O)CNC(=O)Cc1ccc(S(N)(=O)=O)cc1 [Compound 363] | > 100 | ≤ 1
23 | CCOC(=O)c1cc(-c2ccccc2)sc1NC(=O)CN1C[C@H]2CC[C@@H](C1)N2S(C)(=O)=O [Compound 364] | > 100 | > 25
24 | CCOC(=O)c1cc(-c2ccccc2)sc1NC(=O)CNC(=O)CCc1cccc(NS(C)(=O)=O)c1 [Compound 365] | > 100 | ≤ 1
25 | CCOC(=O)c1cc(-c2ccccc2)sc1NC(=O)CNC(=O)Cc1ccc(Cl)c(NS(C)(=O)=O)c1 [Compound 366] | > 100 | ≤ 1
26 | CCOC(=O)c1cc(-c2ccccc2)sc1NC(=O)CNC(=O)c1cccc(P(=O)(O)O)c1 [Compound 367] | > 100 | ≤ 1
27 | CCOC(=O)c1cc(-c2ccccc2)sc1NC(=O)CC(=O)NCc1cccc(NS(C)(=O)=O)c1 [Compound 369] | > 100 | > 25
28 | CCOC(=O)c1cc(-c2ccccc2)ncc1NC(=O)COC(=O)c1cccc(NS(C)(=O)=O)c1 [Compound 372] | > 100 | > 25

Continued, values first:

Row | EC50 (ADAR1) [µM] | Kd (Zα domain of ADAR1 p150) [µM] | Compound
29 | > 100 | ≤ 1 | CCOC(=O)c1cc(-c2ccccc2)sc1NC(=O)COC(=O)c1cccc(N(C)S(C)(=O)=O)c1 [Compound 130]
30 | > 100 | ≤ 1 | CCOC(=O)c1cc(-c2ccccc2)sc1NC(=O)COC(=O)c1cccc(NS(=O)(=O)C2CCCCC2)c1 [Compound 132]
31 | > 100 | > 25 | CCOC(=O)c1cc(-c2ccccc2)sc1NC(=O)COC(=O)c1ccc(F)c(NS(C)(=O)=O)c1 [Compound 137]
32 | > 100 | ≤ 1 | CCOC(=O)c1nc(-c2ccccc2)sc1NC(=O)COC(=O)c1cccc(NS(C)(=O)=O)c1 [Compound 144]
33 | > 100 | ≤ 1 | CCOC(=O)c1cc(-c2ccccc2)sc1NC(=O)COc1cccc(NS(C)(=O)=O)c1 [Compound 147]
34 | > 100 | > 25 | CCOC(=O)c1cc(-c2ccccc2)sc1NC(=O)COC(=O)C1CCCC(NS(C)(=O)=O)C1 (stereo not drawn) [Compound 150]
35 | ≤ 25 | > 25 | CCOC(=O)c1cc(-c2ccccc2)sc1NC(=O)COC(=O)c1cccc(NS(=O)(=O)C2CC2)c1 [Compound 161]
36 | > 100 | ≤ 1 | CCOC(=O)c1cc(-c2ccccc2)sc1NC(=O)COC(=O)c1ccc2c(c1)OCCO2 [Compound 163]
37 | > 100 | > 25 | CCOC(=O)c1cc(-c2ccccc2)ccc1NC(=O)COC(=O)c1cccc(NS(C)(=O)=O)c1 [Compound 171]
38 | > 100 | ≤ 1 | CCOC(=O)c1cc(-c2ccccc2)sc1NC(=O)COC(=O)C1CN(S(C)(=O)=O)CCO1 (stereo not drawn) [Compound 172]
39 | > 100 | ≤ 1 | CCOC(=O)c1cc(-c2ccccc2)sc1NC(=O)CN(C)Cc1cccc(NS(C)(=O)=O)c1 [Compound 180]
40 | > 100 | ≤ 1 | CS(=O)(=O)Nc1cccc(C(=O)OCC(=O)N2CCN(c3ccccc3)C2=O)c1 [Compound 220]
41 | > 100 | ≤ 1 | CS(=O)(=O)Nc1cccc(C(=O)OCc2nc(=O)c3cc(-c4ccccc4)sc3[nH]2)c1 [Compound 241]
42 | > 100 | ≤ 1 | CCOC(=O)c1cc(-c2ccccc2)sc1NC(=O)c1ccc(-c2cccc(NS(C)(=O)=O)c2)nc1 [Compound 253]
43 | > 100 | ≤ 1 | CS(=O)(=O)Nc1cccc(C(=O)OCC(=O)Nc2nc3ccccc3o2)c1 [Compound 270]
44 | > 100 | ≤ 1 | CCOC(=O)c1cc(-c2ccccc2)sc1NC(=O)Cn1cnc(-c2cccc(NS(C)(=O)=O)c2)n1 [Compound 274]
45 | ≤ 25 | ≤ 1 | CCOC(=O)c1cc(-c2ccccc2)sc1NC(=O)CNC(=O)Cc1cccc(NS(C)(=O)=O)c1 [Compound 310]
